Assay results reported in US11304965B2, “Flavonoid compositions and related methods” (INSTITUTO DE INVESTIGACIONES CIENTIFICAS Y SERVICIOS DE …, priority 2017, dated 2022).

What was measured:
Type in all cases: cell-based
human AT2 receptor = target: T1, human AT2 receptor (Homo sapiens, UniProt P50052); assay: Aequorin bioluminescence intracellular calcium assay, CHO-AEQ-AT2 cells; conditions: CHO-AEQ cells expressing AT2; samples 100 μg/ml; compared with angiotensin II; FIG. 19
T1 construct: pcDNA3.1+ plasmid DNA into which had been inserted the coding region for human AT1, AT2, or ETB receptor; expressed in transfected cells; host or cells: CHO-AEQ (Chinese hamster ovary cells stably expressing aequorin), transient transfection with Fugene HD
T1 sequence (P50052 1-363): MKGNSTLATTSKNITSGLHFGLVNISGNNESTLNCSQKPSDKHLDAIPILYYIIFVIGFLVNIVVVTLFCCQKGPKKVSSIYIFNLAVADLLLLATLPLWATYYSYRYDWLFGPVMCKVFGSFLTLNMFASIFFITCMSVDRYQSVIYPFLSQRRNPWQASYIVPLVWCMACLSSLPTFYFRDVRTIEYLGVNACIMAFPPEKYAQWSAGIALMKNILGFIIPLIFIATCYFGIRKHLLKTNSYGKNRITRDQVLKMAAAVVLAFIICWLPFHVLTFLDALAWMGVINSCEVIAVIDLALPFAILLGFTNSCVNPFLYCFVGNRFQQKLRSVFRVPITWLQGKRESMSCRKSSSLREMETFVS
Procedure: (§1) To investigate the vasculoprotective, neuroprotective, and/or antihypertensive properties of Cecropia extracts, Chinese hamster ovary cells that had been stably transfected with aequorin (CHO-AEQ cells) were transiently transfected with various G-protein coupled receptors.
(§2) More particularly, CHO-AEQ cells were cultured in Dulbecco's Modified Eagle's Medium (DMEM) containing 10% fetal bovine serum as previously described (Vanderheyden et al., 126 Br J Pharmacol 1057-1065 (1999)). At 75% confluency, these cells were transiently transfected with pcDNA3.1+ plasmid DNA into which had been inserted the coding region for human AT1, AT2, or ETB receptor. The transient transfection was performed with Fugene HD® following the manufacturers' instructions (2 μg DNA to 7 μl Fugene HD® in Opti-MEM® medium. After transfection, the cells were cultured for an additional day, after which they were harvested and loaded with coelenterazine-h.
(§3) Intracellular calcium can be detected based on the interaction of calcium ions with the calcium binding bioluminescent complex aequorin. Upon calcium binding, aequorin oxidizes coelenterazine-h into coelenteramide with production of CO2 and emission of light (466 nm) (Le Poul et al., 7 J Biomol Screen 57-65 (2002). The CHO-AEQ cells that had been transiently transfected with human AT1, human AT2 or human ETB receptors were used in a bioluminescence assay to evaluate whether—and to what extent—material isolated from Cecropia obtusifolia could perturb G-protein coupled receptor(s).
(§4) Confluent CHO-AEQ cells that were grown and transfected in 75 cm^2 culture flasks were harvested by a brief treatment with a trypsin/EDTA solution, centrifuged, and resuspended in DMEM-F12 cell culture medium containing 0.1% BSA and denoted as assay buffer, at a cell density of 2.5×10^6 cells/ml. Subsequently, coelenterazine-h was added to the cell suspension to a final concentration of 5 μM. Cells were then incubated between 14 h and 18 h at room temperature in the dark under gentle shaking. After this loading step, 15 ml of assay buffer was added to the cells and then centrifuged for 7 min at 1100 rpm in a swinging bucket centrifuge. The resulting cell pellets were gently resuspended in assay buffer containing 1 μM coelenterazine-h at a cell density of 5×10^5 cells/ml. After a further incubation of 1.5 h at room temperature, the cell suspension was distributed at 100 μl/well in white Cellstar 96-well plates.
To assess the activity of the compounds derived from Cecropia obtusifolia extracts, lyophilized crude extract (and compounds that had been identified in the extract) were dissolved in DMSO at 1 mg/ml, and then further diluted in assay buffer to 100 μg/ml (final concentration) (Caballero-George et al., 4 Curr. Trends Biotechnol Pharm 881-899 (2010)). A […] was then added to each well containing the transiently transfected cells. For comparison, control peptides were diluted in assay buffer to a final concentration of 0.1 μM angiotensin II or 10 nM endothelin-1. These control peptides are known to cause a transient rise in cytosolic calcium. The agonist solutions were loaded in the cell injector of a Victor spectrophotometer, and a 96-well plate was inserted.
(§5) Measurements were initiated by injecting 50 μl solution/well, and the bioluminescence was recorded every 200 ms for 120 cycles. To account for slight variations in cell number, a final concentration of 10 μM ATP was added by a second injector to the cells (50 μl/well) and the resulting response was measured.
The effects were quantified by calculation of the area under the curves by integration of the obtained transient responses using GraphPad Prism 5™. The activation of the AT1, AT2, or ETB receptors was expressed as a fractional response. This is obtained by dividing the agonist response by the sum of the agonist and ATP response for each well (i.e., agonist response/(ATP+agonist response)). […]

human AT1 receptor = target: T2, human AT1 receptor (Homo sapiens, UniProt P30556); assay: Aequorin bioluminescence intracellular calcium assay, CHO-AEQ-AT1 cells (inhibition of angiotensin II); conditions: CHO-AEQ cells expressing AT1; 100 nM angiotensin II; samples 100 μg/ml; compared with losartan; FIG. 21
T2 construct: pcDNA3.1+ plasmid DNA into which had been inserted the coding region for human AT1, AT2, or ETB receptor; expressed in transfected cells; host or cells: CHO-AEQ (Chinese hamster ovary cells stably expressing aequorin), transient transfection with Fugene HD
T2 sequence (P30556 1-359): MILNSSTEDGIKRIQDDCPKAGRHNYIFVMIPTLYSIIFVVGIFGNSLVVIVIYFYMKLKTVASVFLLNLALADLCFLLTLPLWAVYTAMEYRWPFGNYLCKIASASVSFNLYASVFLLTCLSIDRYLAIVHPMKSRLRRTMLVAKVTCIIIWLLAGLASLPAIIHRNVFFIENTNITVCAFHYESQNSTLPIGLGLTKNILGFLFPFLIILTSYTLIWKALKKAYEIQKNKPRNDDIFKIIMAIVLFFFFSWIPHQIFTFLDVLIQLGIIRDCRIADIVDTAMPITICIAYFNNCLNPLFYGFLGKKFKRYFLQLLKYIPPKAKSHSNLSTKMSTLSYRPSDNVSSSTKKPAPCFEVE
Procedure: as §1, §2, §3, §4
To assess the activity of the compounds derived from Cecropia obtusifolia extracts, lyophilized crude extract (and compounds that had been identified in the extract) were dissolved in DMSO at 1 mg/ml, and then further diluted in assay buffer to 100 μg/ml (final concentration) (Caballero-George et al., 4 Curr. Trends Biotechnol Pharm 881-899 (2010)). A […] was then added to each well containing the transiently transfected cells. […]
as §5
(§6) The effects were quantified by calculation of the area under the curves by integration of the obtained transient responses using GraphPad Prism 5™. The activation of the AT1, AT2, or ETB receptors was expressed as a fractional response. […]

human ETB receptor = target: T3, human ETB receptor (Homo sapiens, UniProt P24530); assay: Aequorin bioluminescence intracellular calcium assay, CHO-AEQ-ETB cells; conditions: CHO-AEQ cells expressing ETB; samples 100 μg/ml; compared with 100 nM endothelin 1; FIG. 20
T3 construct: pcDNA3.1+ plasmid DNA into which had been inserted the coding region for human AT1, AT2, or ETB receptor; expressed in transfected cells; host or cells: CHO-AEQ (Chinese hamster ovary cells stably expressing aequorin), transient transfection with Fugene HD
T3 sequence (P24530 27-442): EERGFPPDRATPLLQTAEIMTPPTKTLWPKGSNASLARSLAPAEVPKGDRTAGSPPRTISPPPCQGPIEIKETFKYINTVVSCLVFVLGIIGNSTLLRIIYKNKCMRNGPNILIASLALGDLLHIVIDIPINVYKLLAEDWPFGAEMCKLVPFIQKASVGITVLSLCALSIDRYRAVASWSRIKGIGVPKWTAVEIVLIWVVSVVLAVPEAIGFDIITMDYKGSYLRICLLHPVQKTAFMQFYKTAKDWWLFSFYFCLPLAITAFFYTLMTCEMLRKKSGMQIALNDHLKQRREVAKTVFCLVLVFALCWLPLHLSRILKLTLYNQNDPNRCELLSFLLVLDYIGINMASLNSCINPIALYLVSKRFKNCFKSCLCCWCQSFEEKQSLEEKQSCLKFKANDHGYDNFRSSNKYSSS
Procedure: as §1
More particularly, CHO-AEQ cells were cultured in Dulbecco's Modified Eagle's Medium (DMEM) containing 10% fetal bovine serum as previously described (Vanderheyden et al., 126 Br J Pharmacol 1057-1065 (1999)). At 75% confluency, these cells were transiently transfected with pcDNA3.1+ plasmid DNA into which had been inserted the coding region for human AT1, AT2, or ETB receptor. […]
Intracellular calcium can be detected based on the interaction of calcium ions with the calcium binding bioluminescent complex aequorin. […]
as §5, §6

| Compound | activation of the AT2 receptor (cytoplasmic calcium release) (human AT2 receptor) | inhibition of the agonistic effect of angiotensin II on the AT1 receptor (human AT1 receptor) | cytoplasmic calcium release after binding to the ETB receptors (human ETB receptor) |
| --- | --- | --- | --- |
| O=C(/C=C/c1ccc(O)c(O)c1)O[C@@H]1C[C@](O)(C(=O)O)C[C@@H](O)[C@H]1O [Compound P2, chlorogenic acid] | approximately half of the activity of the extract | less than half of the effect of Fraction 3-4 |  |
| O=c1cc(-c2ccc(O)c(O)c2)oc2cc(O)c(C3OC(CO)C(O)C(O)C3OC3OCC(O)C(O)C3O)c(O)c12 (stereo not drawn) [Compound P4, isoorientin-2″-O-xyloside] | approximately half of the activity of the extract | less than half of the effect of Fraction 3-4 |  |
| O=c1cc(-c2ccc(O)cc2)oc2cc(O)c(C3OC(CO)C(O)C(O)C3OC3OC(CO)C(O)C(O)C3O)c(O)c12 (stereo not drawn) [Compound P7, isovitexin-2″-O-glucoside] | approximately half of the activity of the extract | less than half of the effect of Fraction 3-4 |  |
| O=c1cc(-c2ccc(O)cc2)oc2cc(O)c(C3OC(CO)C(O)C(O)C3OC3OCC(O)C(O)C3O)c(O)c12 (stereo not drawn) [Compound P8, isovitexin-2″-O-xyloside] | approximately half of the activity of the extract | less than half of the effect of Fraction 3-4 |  |
| CC1OC(OC2C(c3c(O)cc4oc(-c5ccc(O)cc5)cc(=O)c4c3O)OC(CO)C(O)C2O)C(O)C(O)C1O (stereo not drawn) [Compound P9, isovitexin-2″-O-rhamnoside] | approximately half of the activity of the extract | less than half of the effect of Fraction 3-4 |  |
| isovitexin-O-xyloside [Compound P6] | approximately half of the activity of the extract |  | the most active sample tested |
